Experimental data published in patent publication US20110257732A1, “STENTS HAVING CONTROLLED ELUTION” (Micell Technologies, Inc., priority 2010, published 2011).

Columns and labels:
[1] = Stented artery sirolimus concentration (Example 34); assay type: in vivo, porcine; settings: for Pharmaceutical agent released from the coated stent recovered in the analyzed arterial tissue: based on 135 micrograms on the original stent at time 0
Experimental: (§1) Pharmacokinetic studies were performed on coated stents prepared and implanted as noted in Example 32. […] The coating encapsuled each of the stents.
(§2) Complete balloon deflation was verified with fluoroscopy.
(§3) Subjects were euthanized at the testing time points, and the tissue adjacent the stent (for non-limiting example, tissue surrounding the stent—referred to generally as arterial tissue) was extracted for analysis of the amount of pharmaceutical agent therein. Stents were also analyzed for the amount of pharmaceutical agent remaining on the coated stent at each time point. Testing methods as noted elsewhere herein were used to determine the amount of pharmaceutical agent remaining on the stent or in the tissue, and/or are methods that would be known to one of skill in the art.

[2] = Whole blood rapamycin concentration after coated stent implantation, LC-MS/MS (Example 32); settings: every time point 5 minutes to day 180, every subject; one coated stent (135 micrograms sirolimus) per porcine subject
Experimental: Blood serum levels of porcine subjects having coated stents implanted were tested at multiple time points. The coated stents implanted were prepared as follows: coated stents for the study comprise a coating that was deposited on the stent by deposition of rapamycin in dry powder form by RESS methods and equipment described herein and deposition of polymer particles by RESS methods and equipment described herein. A PDPDP (Polymer, sinter, Drug, Polymer, sinter, Drug, Polymer, sinter) coating sequence was used wherein the polymer was 50:50 PLGA, and the drug was rapamycin. The sinter step was performed at 100° C./150 psi/10 min after each “P” (or polymer) layer. […] The coating was about 5-15 micrometers thick on each stent, and comprised a thicker coating on the abluminal surface (coating bias). […]
Multiple batches of coated stents were created, implanted in the porcine subjects, one coated stent per subject, and each subject's blood serum levels were tested at multiple time points. […] The balloon was then inflated at a steady rate to a pressure sufficient to target a visually assessed balloon-artery ratio of 1.1:1-1.2:1. Confirmation of this balloon-artery ratio was made when the angiographic images were quantitatively assessed. […]
The whole blood sample was tested for rapamycin concentration using LC-MS/MS. Samples were quantified for rapamycin using ascomycin as the internal standard. […]

[3] = Sirolimus remaining on and released from explanted stents (Example 34); assay type: in vivo, porcine; settings: for Stent-associated sirolimus, Drug Released, Mean: calculated from Day 0 baseline measurement
Experimental: as §1, §2, §3

[4] = Day 60, porcine coronary artery
[5] = Day 90, porcine coronary artery

Pharmaceutical agent released from the coated stent recovered in the analyzed arterial tissue ([1]; at day 30): about 60%
Pharmaceutical agent released from the coated stent recovered in the analyzed arterial tissue ([1]; between days 3 and 60): about 40%
concentration at 1 day ([1]; pig, stented arterial tissue, other: coated stent implanted in coronary artery, 135 micrograms per stent, day 1, porcine, coated stent 135 micrograms sirolimus, read-out: Stented artery sirolimus concentration (tissue within stented segments)): 19600 ng/g
concentration at 3 day ([1]; pig, stented arterial tissue, other: coated stent implanted in coronary artery, 135 micrograms per stent, day 3, porcine, coated stent 135 micrograms sirolimus, read-out: Stented artery sirolimus concentration (tissue within stented segments)): 21400 ng/g
concentration at 7 day ([1]; pig, stented arterial tissue, other: coated stent implanted in coronary artery, 135 micrograms per stent, day 7, porcine, coated stent 135 micrograms sirolimus, read-out: Stented artery sirolimus concentration (tissue within stented segments)): 42200 ng/g
concentration at 14 day ([1]; pig, stented arterial tissue, other: coated stent implanted in coronary artery, 135 micrograms per stent, day 14, porcine, coated stent 135 micrograms sirolimus, read-out: Stented artery sirolimus concentration (tissue within stented segments)): 55900 ng/g
concentration at 21 day ([1]; pig, stented arterial tissue, other: coated stent implanted in coronary artery, 135 micrograms per stent, day 21, porcine, coated stent 135 micrograms sirolimus, read-out: Stented artery sirolimus concentration (tissue within stented segments)): 173000 ng/g
concentration at 30 day ([1]; pig, stented arterial tissue, other: coated stent implanted in coronary artery, 135 micrograms per stent, day 30, porcine, coated stent 135 micrograms sirolimus, read-out: Stented artery sirolimus concentration (tissue within stented segments)): 565000 ng/g
concentration at 45 day ([1]; pig, stented arterial tissue, other: coated stent implanted in coronary artery, 135 micrograms per stent, day 45, porcine, coated stent 135 micrograms sirolimus, read-out: Stented artery sirolimus concentration (tissue within stented segments)): 582000 ng/g
concentration at 60 day ([1]; pig, stented arterial tissue, other: coated stent implanted in coronary artery, 135 micrograms per stent, day 60, porcine, coated stent 135 micrograms sirolimus, read-out: Stented artery sirolimus concentration (tissue within stented segments)): 532000 ng/g
concentration at 90 day ([1]; pig, stented arterial tissue, other: coated stent implanted in coronary artery, 135 micrograms per stent, day 90, porcine, coated stent 135 micrograms sirolimus, read-out: Stented artery sirolimus concentration (tissue within stented segments)): 251000 ng/g
Concentration of rapamycin in whole blood (below quantifiable limit) [2]: < 0.100 ng/mL
Stent-associated sirolimus, Drug Released, Mean ([3]; Day 0 baseline): 0 µg
Stent-associated sirolimus, Drug Remaining, Mean ([3]; Day 0 baseline, coated stent (PDPDP, 50:50 PLGA, 135 micrograms sirolimus)): 137.00 µg
Stent-associated sirolimus, Drug Remaining, Mean ([3]; Day 1, coated stent (PDPDP, 50:50 PLGA, 135 micrograms sirolimus) in porcine coronary artery): 137.00 µg
Stent-associated sirolimus, Drug Released, Mean ([3]; Day 1, porcine coronary artery): 1.67 µg
Stent-associated sirolimus, Drug Remaining, Mean ([3]; Day 3, coated stent (PDPDP, 50:50 PLGA, 135 micrograms sirolimus) in porcine coronary artery): 135.83 µg
Stent-associated sirolimus, Drug Released, Mean ([3]; Day 3, porcine coronary artery): 2.83 µg
Stent-associated sirolimus, Drug Remaining, Mean ([3]; Day 7, coated stent (PDPDP, 50:50 PLGA, 135 micrograms sirolimus) in porcine coronary artery): 127.83 µg
Stent-associated sirolimus, Drug Released, Mean ([3]; Day 7, porcine coronary artery): 9.17 µg
Stent-associated sirolimus, Drug Remaining, Mean ([3]; Day 14, coated stent (PDPDP, 50:50 PLGA, 135 micrograms sirolimus) in porcine coronary artery): 119.67 µg
Stent-associated sirolimus, Drug Released, Mean ([3]; Day 14, porcine coronary artery): 17.33 µg
Stent-associated sirolimus, Drug Remaining, Mean ([3]; Day 21, coated stent (PDPDP, 50:50 PLGA, 135 micrograms sirolimus) in porcine coronary artery): 103.68 µg
Stent-associated sirolimus, Drug Released, Mean ([3]; Day 21, porcine coronary artery): 33.32 µg
Stent-associated sirolimus, Drug Remaining, Mean ([3]; Day 30, coated stent (PDPDP, 50:50 PLGA, 135 micrograms sirolimus) in porcine coronary artery): 65.25 µg
Stent-associated sirolimus, Drug Released, Mean ([3]; Day 30, porcine coronary artery): 71.75 µg
Stent-associated sirolimus, Drug Remaining, Mean ([3]; Day 45, coated stent (PDPDP, 50:50 PLGA, 135 micrograms sirolimus) in porcine coronary artery): 3.89 µg
Stent-associated sirolimus, Drug Released, Mean ([3]; Day 45, porcine coronary artery): 133.12 µg
Stent-associated sirolimus, Drug Remaining, Mean ([3]; Day 60, coated stent (PDPDP, 50:50 PLGA, 135 micrograms sirolimus) in porcine coronary artery): 1.59 µg
Average incremental stent sirolimus elution (loss) rate [3, 4]: 0.15 ± 0.04 µg/day
Stent-associated sirolimus, Drug Released, Mean [3, 4]: 135.41 µg
Stent-associated sirolimus, Drug Remaining, Mean ([3]; Day 90, coated stent (PDPDP, 50:50 PLGA, 135 micrograms sirolimus) in porcine coronary artery): 0.11 µg
Average incremental stent sirolimus elution (loss) rate [3, 5]: 0.05 ± 0.00 µg/day
Stent-associated sirolimus, Drug Released, Mean [3, 5]: 136.89 µg
Average incremental stent sirolimus elution (loss) rate ([3]; peak around day 30, porcine coronary artery): 4.27 ± 1.69 µg/day
Structure (SMILES): CO[C@H]1C[C@@H]2CC[C@@H](C)[C@@](O)(O2)C(=O)C(=O)N2CCCC[C@H]2C(=O)O[C@H]([C@H](C)C[C@@H]2CC[C@@H](O)[C@H](OC)C2)CC(=O)[C@H](C)/C=C(\C)[C@@H](O)[C@@H](OC)C(=O)[C@H](C)C[C@H](C)/C=C/C=C/C=C/1C [rapamycin]
